Data published in patent US20080027033A1, “Method and Composition for Treatment of Cutaneous Lesions” (Acrux DDS Pty Ltd, priority 2003, published 2008).

Assay: diffusion across skin after transdermal spray administration
Conditions: effect of adding octyl salicylate to the transdermal spray formulation (Example 1); predicted cumulative amount, FIGS. 1 and 2

C[C@]12CC[C@@H]3c4ccc(O)cc4CC[C@H]3[C@@H]1CC[C@@H]2O [estradiol]
amount diffusing across the skin over 24 hours: significant marked increase
